Results taken from patent US20260199343A1 (Kadmon Corporation, LLC, priority 2022, published 2026).
Counter-ions that a name gives are not always drawn.

Assays:
C-myc protein = test: Western blot of C-Myc in LP1 cells; format: cell-based, human; conditions: 24 hours of treatment
[1] = test system: MM cell lines (LP1, MM1R, MM1S, OPM2); test: CellTiter-Glo cell viability, panel of MM cell lines; format: cell-based, human; conditions: 8 days treatment
Method: Cell viability was measured by CellTiter-Glo, Luminescent Cell Viability Assay normalized with DMSO.

[2] = cited from earlier work
LP-1 cells = test: Growth inhibition of LP-1 cells (CellTiterGlo / Incucyte confluency); format: cell-based, human; conditions: LP1, 5-6 days
Method: (§1) On Day 1, the cells were plated at 3,000 cells per well (50 ul) using 384w plate (Costar, 3765) pre-coated with Poly-D-Lysine, spun down at 300 g for 1 min at room temperature and transferred in Incucyte S3 (37° C.; 5% CO2; every 2 h kinetic read). […] Cells were further incubated in Incucyte S3 (Sartorius) for an additional 5-6 days at 37° C., 5% CO2 with the same kinetic readings. At the end, proliferation was measured by added CellTiterGlo (Promega) to assess cell viability or by using Incucyte measuring cell confluency over time. Cell growth was normalized to DMSO (100%) and staurosporine (Sigma; […]) 1 uM (0%)).

MM1S cells = test: Growth inhibition of MM1S cells (CellTiterGlo / Incucyte confluency); format: cell-based, human; conditions: 5-6 days
Method: as §1

[3] = cited from earlier work; remark: listed apart in the source
HD NK cells = test: HD NK cell viability, belumosudil vs Y27632 (Example 5); format: cell-based, human; conditions: 10-40 μM, after 4 days of treatment
Description: (§2) Healthy donor buffy coats were supplied by EFS Ile de France. Immediately after reception, the qualified buffy coats were put under gentle agitation overnight at room temperature. The following day, peripheral blood mononuclear cells (PBMCs) were isolated by Ficoll (Cytiva #17-1440-02) density gradient centrifugation. Human NK cells were purified from PBMCs with the MACSXpress Whole Blood NK cell isolation kit from Miltenyi Biotec (#130-127-695) by negative selection using manual magnetic labelling and the MACSxpress separator (Miltenyi Biotec #130-098-308). Then, purified NK cells were cultured in RPMI1640 medium supplemented with 10% foetal bovine serum (FBS) (Eurobio #CVFSVF06-01) and 1% of L-Glutamine (Gibco #25030-081). The cells were left to rest overnight at 37° C. with 5% CO2 before being used. […]
(§3) To additionally assess cell viability, DAPI (Miltenyi Biotec, #130-111-570) was added in each well before plate reading by flow cytometry. Samples were then analyzed with the MACSQuant 16 flow cytometer (Miltenyi Biotec).
(§4) Data were analyzed with FlowJo software as shown in FIG. 3: (FIG. 3A) MOLP-8 cells excluding debris was gated, followed by gating for single cells (FIG. 3B). From the single cells, viable DAPI^neg cells were quantified (FIG. 3C).

RPMI-8226 = RPMI-8226 viability, belumosudil vs Y27632 (Example 5); format: cell-based, human; conditions: 10-40 μM (belumosudil effect starting at 10 μM), after 4 days of treatment
Method: RPMI-8226 (ATCC, #CCL155) were maintained in RPMI1640 complete medium, incubated at 37° C. with 5% CO2 before being used.
(§5) Before treatment, MM cells were centrifuged for 5 minutes at 300 g, counted, and resuspended in RPMI1640 complete medium to have 50000 cells/100 μl.
(§6) Compounds and cells were then added to the appropriate wells of a Corning™ 96-Well Clear Ultra Low Attachment Microplate (Corning, #7007) (final volume of each well: 200 μl). […] MOLP-8 or LP-1 or RPMI-8226 or HD NK cells (50000 cells/well) were then added to the appropriate wells. The plate was then centrifuged for 1 minute at 100 g before being placed into an incubator at 37° C. with 5% CO2 for up to 4 days.
After treatment, cells were collected and added to U bottom plates for antibody labelling.
Then, cells were centrifuged for 5 minutes at 300 g, the supernatant removed and 200 μl of AutoMACS Running buffer (Miltenyi Biotec, #130-091-221) added to each well. […]
as §3, §4

MOLP-8 = MOLP-8 viability, belumosudil vs Y27632 (Example 5); format: cell-based, human; conditions: 10-40 μM (belumosudil effect starting at 10 μM), after 4 days of treatment
Method: MOLP-8 (DSMZ, #ACC569) were maintained in RPMI1640 complete medium (RPMI1640 supplemented with 20% FBS—Eurobio #CVFSVF06-01 and 1% L-glutamine—Gibco #25030-081), incubated at 37° C. with 5% CO2 before being used.
as §5, §6
After treatment, cells were collected and added to U bottom plates for antibody labelling. […]
as §3, §4

[4] = HD NK cell viability by DAPI flow cytometry (Example 2); format: cell-based; conditions: human, healthy donor (HD) NK cells purified from PBMCs; high concentrations 25-40 μM, after 4 days of treatment; read-out: reduction of HD NK cells viability
Description: as §2, with “fetal” for “foetal”, “#25030-081).” for “#25030-081). The cells were left to rest overnight at 37° C. with 5% CO2 before being used.”
To additionally assess cell viability, DAPI (Miltenyi Biotec, #130-111-570) was added in each well before plate reading by flow cytometry. Samples were then analyzed with the MACSQuant 16 flow cytometer (Miltenyi Biotec). Data were analyzed with FlowJo software using the following strategy shown in FIGS. 3A-3D: (A) MOLP-8 cells excluding debris were gated, followed by gating for single cells (B), from single cells, viable DAPI^neg cells were quantified (C), and from DAPI^neg cells, the expression of CD38 was quantified with FITC fluorochrome (D) and expressed as median of fluorescence intensity (MFI).

CD38 = conditions: bone marrow and MM cells of patients after first treatment; cited from earlier work

Compound: Nc1cccc2c1C(=O)N(C1CCC(=O)NC1=O)C2=O (racemic) [pomalidomide, (RS)-4-Amino-2-(2,6-dioxo-piperidin-3-yl)-isoindoline-1,3-dione]
- C-myc protein level (C-myc protein): very moderate effect
- growth inhibition of MM cell lines [1]: growth inhibition in all of these MM cell lines except LP1
- solubility in all pH solutions ([2]; all pH solutions): about 0.01 mg/mL
- solubility into organic solvents ([2]; organic solvents): limited to low solubility

Compound: CC(C)NC(=O)COc1cccc(-c2nc(Nc3ccc4[nH]ncc4c3)c3ccccc3n2)c1 [Belumosudil mesylate, 2-{3-[4-(1H-indazol-5-ylamino)-2-quinazolinyl]phenoxy}-N-(propan-2-yl) acetamide methanesulfonate (1:1)]
- solubility in water [2]: practically insoluble in water

Compound: C[C@@H]1C[C@H]2[C@@H]3CCC4=CC(=O)C=C[C@]4(C)[C@@]3(F)[C@@H](O)C[C@]2(C)[C@@]1(O)C(=O)CO [Dexamethasone, 9-fluoro-11β,17,21-trihydroxy-16α-methylpregna-1,4-diene-3,20-dione]
- growth inhibition, single agent (LP-1 cells): single agent growth inhibition activity
- growth inhibition, single agent (MM1S cells): single agent growth inhibition activity
- stability in air [3]: stable in air
- solubility in water [2]: practically insoluble in water

Compound: C[C@@H](N)[C@H]1CC[C@H](C(=O)Nc2ccncc2)CC1 [Y27632]
- HD NK cell viability (HD NK cells): neither belumosudil nor Y27632 impact HD NK cell viability
- viability of RPMI-8226 (number of cells and % of live cells) (RPMI-8226): does not impact viability
- viability of MOLP-8 (number of cells and % of live cells) (MOLP-8): does not impact viability

Compound: CC(C)NC(=O)COc1cccc(-c2nc(Nc3ccc4[nH]ncc4c3)c3ccccc3n2)c1 [belumosudil, 2-{3-[4-(1H-indazol-5-ylamino)-2-quinazolinyl]phenoxy}-N-(propan-2-yl) acetamide]
- cytotoxicity at 4 days [4]: ≤ 10%
- IC50 ([1]; Homo sapiens, 192 h, LP1, MM1R, MM1S, OPM2, normalized with DMSO, read-out: IC50 of MM cell line growth inhibition): 1 to 7 µM

Compound: daratumumab: anti-CD38 antibody
- CD38 expression (CD38): reduced
